Assay results published in patent publication US5112515A, “Phenothrin shampoo” (Euroceltique, S.A., priority 1990, dated 1992).

Test system: Bacteria, moulds and yeasts
Assay: Efficacy of Antimicrobial Preservatives in Pharmaceutical Products (British Pharmacopoeia 1988), overall outcome
Format: cell-based
Conditions: specification of British Pharmacopoeia 1988
Text: The test procedure conformed with the specifications described in the 1988 British Pharmacopoeia--"Efficacy of Antimicrobial Preservatives in Pharmaceutical Products".
Aliquots of microbial suspensions of Pseudomonas aeruoinosa NC18 8626, Stahylococcus aureus NCTC 10788, Candida albicans NCPF 3179, and Asperoillus niger IMI 149007 were introduced into separate containers of the composition of Example 1 to achieve a final concentration of approximately 1×10^6 cfu/ml. The same volume of inoculum was simultaneously introduced into separate equivalent quantities of 0.1% peptone water to be used as controls. The inoculated product was stored in the dark at 20°-25° C.
1 ml aliquots of the inoculated product were removed at 0, 6, 24 and 48 hours, 7, 14 and 28 days. Each was added to 9 ml of 0.1% peptone water containing the following as preservative inactivating agents:
A topical preparation is considered to be effectively preserved if the following criteria are met:
Bacteria--the number of organisms recovered per ml is reduced by a factor of not less than 10^3 within 48 hours of challenge and no organism is recovered from 1 ml at 7 days and thereafter;
Moulds and Yeasts--the number of organisms recovered per ml is reduced by a factor of not less than 10^2 within 14 days of challenge and there is no increase thereafter.

## O=[N+]([O-])C(Br)(CO)CO [bronopol, 2-bromo-2-nitropropane-1,3,-diol]
  Antimicrobial protection / antimicrobial properties of the shampoo: good antimicrobial protection
